# Entries after “also recorded” stand apart in the source; their conditions may differ. Read-outs that look alike come from different tables or passages of the source.
# Key:
# [1] = system: arginase; conditions: cited from earlier work
# [2] = target: T1, liver arginase (Bos taurus, UniProt Q2KJ64); conditions: cited from earlier work; for activity toward arginase: concentrations up to 2 mM
# T1 sequence (Q2KJ64 1-322): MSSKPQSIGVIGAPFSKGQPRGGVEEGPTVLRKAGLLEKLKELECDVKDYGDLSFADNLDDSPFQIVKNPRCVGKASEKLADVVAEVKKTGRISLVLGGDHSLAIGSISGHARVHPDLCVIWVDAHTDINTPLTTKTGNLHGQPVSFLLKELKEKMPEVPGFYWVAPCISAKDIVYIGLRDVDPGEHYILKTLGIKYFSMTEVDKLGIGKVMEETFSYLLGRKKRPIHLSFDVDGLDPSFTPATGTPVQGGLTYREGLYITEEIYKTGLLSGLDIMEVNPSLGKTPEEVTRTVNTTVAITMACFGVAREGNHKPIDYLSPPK
# [3] = target: T2, arginase (Homo sapiens, UniProt P05089); conditions: cited from earlier work; for Ki: competitive inhibitors of arginase
# T2 sequence (P05089 1-322): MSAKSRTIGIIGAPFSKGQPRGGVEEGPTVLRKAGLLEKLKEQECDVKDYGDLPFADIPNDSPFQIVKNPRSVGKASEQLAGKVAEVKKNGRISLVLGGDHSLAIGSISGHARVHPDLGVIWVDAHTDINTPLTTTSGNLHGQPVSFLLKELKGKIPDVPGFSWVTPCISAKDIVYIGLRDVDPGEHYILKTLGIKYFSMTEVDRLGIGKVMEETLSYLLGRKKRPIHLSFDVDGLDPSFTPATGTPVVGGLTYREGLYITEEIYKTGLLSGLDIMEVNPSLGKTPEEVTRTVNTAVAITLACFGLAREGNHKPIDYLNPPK
# [4] = target: rat liver arginase (RLA) (Rattus norvegicus, UniProt P07824); conditions: cited from earlier work; for IC50: read-out: IC50 towards RLA
# rat liver arginase (RLA), sequence (P07824 whole entry): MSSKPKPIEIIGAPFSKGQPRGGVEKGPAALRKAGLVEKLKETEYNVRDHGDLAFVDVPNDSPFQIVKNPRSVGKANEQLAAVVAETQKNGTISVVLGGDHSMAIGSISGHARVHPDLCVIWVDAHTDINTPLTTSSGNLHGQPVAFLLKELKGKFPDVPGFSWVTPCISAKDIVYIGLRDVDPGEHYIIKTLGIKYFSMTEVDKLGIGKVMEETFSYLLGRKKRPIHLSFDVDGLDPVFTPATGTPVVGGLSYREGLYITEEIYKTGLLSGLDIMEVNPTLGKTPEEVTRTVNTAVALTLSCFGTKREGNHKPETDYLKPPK
# [5] = target: arginase; conditions: cited from earlier work; remark: listed apart in the source
# [6] = system: RAW264.7 murine macrophage cells; test: urea production in RAW264.7 cells treated with LPS and IL-13; type: cell-based; conditions: 20 mM lysine; LPS/IL-13 treated RAW264.7; 400 μM arginine, 24 hour incubation
# Procedure: Briefly, RAW264.7 macrophages exposed to media alone (Control) or CAT2-inducing conditions (LPS/IL-13) for 24 hours were then equilibrated for 2 hours in Arginine Transport Buffer. After a 24 hour incubation in the presence or absence of competing L-lysine in Arginine Transport Buffer containing a final arginine concentration of 400 μM, urea production was evaluated as described in Example 4. Urea production is expressed as μg of urea in the supernatant/mg of cell lysate protein.
# RAW264.7 macrophages were stimulated in 24-well plates as for arginine transport studies (above). After 20 hours of stimulation, the cells were washed three times with Arg Wash Buffer #1 and then an additional four times with Arg Transport Buffer. […] Supernatants were clarified by centrifugation at 12,000 rpm for 10 minutes and 100 μl assayed for urea in triplicate using a UV absorbance kit method (R-Biopharma) following the manufacturer's instructions with the exception that it was performed at 1/10 scale in a 96-well assay plate with a total volume of 300 μl/well. Cells were lysed with 500 μl of 1.0% SDS in 10 mM HEPES, pH 7.4 and the protein quantitated using the Micro-BCA kit (Pierce). Urea production was expressed as μg urea/mg protein lysate.
# [7] = system: rat tracheal explants; test: carbachol-induced tracheal contraction; conditions: 100 mM lysine; preincubated 15 to 20 hours
# Procedure: Briefly, rat tracheal explants were preincubated for 15 to 20 hours with either media or media containing 100 mM L-lysine. The trachea were then washed and contraction measured in a Krebs-Henseleit solution in the presence or absence of 100 mM L-lysine.
# Rats between 8-10 weeks of age were used for this experiment. Trachea were rapidly excised and cleaned of adherent connective tissue. […] Composition (mM) of the medium included 0.1 nonessential amino acids, 4% FBS, 2.0 glutamine, 0.05β-mercaptoethanol, 100 U/ml penicillin/100 μg/ml streptomycin.
# Trachea were supported longitudinally by a rod with a stainless steel pin into the base of a double-jacketed, glass organ bath filled with 15 ml of Krebs-Henseleit (K-H) solution (37° C.) of the following composition (mM): 118 NaCl; 4.7 KCl; 1.2 KH2PO4; 11.1 Dextrose; 1.2 MgSO4; 2.8 CaCl2; and 25 NaHCO3. The solution was continuously gassed with a 5% CO2 and 95% O2 mixture for the duration of each experiment. The upper support was attached by a loop of silk thread to a TSD125 force transducer. […]
# At the end of each experiment, all trachea were blotted on a gauze pad and weighted. Tensions were calculated as milligram tensions per milligram weight (mg/mg) and expressed as an individual percentage (%) of 10^−5 M carbachol-evoked force of the trachea in the absence of the drugs. All values were expressed as Mean ± SE. […]
# [8] = system: CAT2; test: arginine uptake in RAW264.7 cells treated with LPS and IL-13; type: cell-based, murine; conditions: 20 mM lysine; Control and LPS/IL-13 treated RAW264.7 cells; 100 μM arginine, three minutes
# Procedure: Briefly, RAW264.7 cells were exposed to media alone (Control) or CAT2-inducing conditions (LPS/IL-13) for 24 hours and were then evaluated for arginine transport over a three-minute period in a final arginine concentration of 100 μM.
# RAW264.7 cells, at 1×10^6, were plated on 24-well tissue culture plates in 0.5 ml cDME. After adhering for 2 hours, 0.5 ml media containing LPS (Sigma) and/or rhIL13 (R&D Systems) was added for final concentrations of 1 μg/ml and 10 ng/ml, respectively. After 20 hours incubation at 37° C. in an atmosphere of 5% CO2 and 95% air, the cells were washed 3 times with Arg Wash Buffer #1 (140 mM choline chloride, 5 mM KCl, 0.9 mM CaCl2, 1 mM MgSO4, 5.6 mM glucose, and 25 mM HEPES, pH7.4), then an additional 4 times with Arg Transport Buffer (137 mM choline chloride, 5.4 mM KCl, 1.8 mM CaCl2, 1.2 mM MgSO4, 10 mM HEPES, adjusted to pH7.4). […] Non-saturable binding was quantitated by incubating a replicate well of each treatment with transport buffer containing […]. […] Protein quantitation was performed using a micro-BCA kit (Pierce) and 400 μl lysate suspended in 10 ml scintillation fluid, loaded into glass scintillation vials, and emissions counted for 1 minute. Specific Arginine Uptake was calculated as Saturable binding (CPM/mg protein 400 μM Arg)— Non-saturable binding (CPM/mg protein 5 mM Arg).
# [9] = target: IL-13 (murine, endogenous in OVA-challenged Balb/c mice) (mouse) (UniProt P20109); test: cell-based or functional assay
# IL-13 (murine, endogenous in OVA-challenged Balb/c mice) (mouse), sequence (P20109 19-131 limits assumed): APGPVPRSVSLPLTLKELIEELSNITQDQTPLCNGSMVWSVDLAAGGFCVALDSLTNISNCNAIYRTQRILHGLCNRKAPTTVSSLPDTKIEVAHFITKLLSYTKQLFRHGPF
molecule,measurement,setting,value
"N=C(NO)c1ccc(CC(N)C(=O)O)cc1 (racemic) [4-hydroxyamidino-D,L-phenylalanine]",inhibition of liver arginase and arginase in the alveolar macrophages,[1],inhibit
"NC(CCCCC(N)C(=O)O)=NO (racemic) [N omega-hydroxy-D,L-indospicine]",inhibition of liver arginase and arginase in the alveolar macrophages,[1],inhibit
N=C(NO)NCCC[C@@H](N)C(=O)O [D-NOHA],effect on arginase relative to L-NOHA,[2],much less active
O=C(O)CN(CCN(CC(=O)O)CC(=O)O)CC(=O)O [EDTA],inhibition of arginase activity,[3],do not inhibit
"F [F^−, fluoride]",Ki,"[4]; pH 7.4, uncompetitive towards L-Arg binding, reversible",1300 µM
same,IC50,[4]; pH 7,1200 µM
same,IC50,[4]; pH 10,19000 µM
NC(=O)NCCC[C@H](N)C(=O)O [L-Cit],effect on arginase relative to L-NOHA,[2],much weaker inhibitors
same,activity toward arginase,[2],inactive
"N=C(NO)NCCC[C@H](N)C(=O)O [L-NOHA, N(omega)-Hydroxy-L-arginine]",Ki,[2]; arginase,150 µM
same,IC50,"[5]; murine macrophages (Buga et al.), read-out: IC50 arginase activity",450 µM
same,IC50,"[5]; read-out: IC50 hydrolysis of L-arginine to L-ornithine, unstimulated murine macrophages (Tenu et al.)",400 µM
"NCCC[C@H](N)C(=O)O [L-omithine, L-ornithine]",Ki,[3],2000 µM
O=NO [NO2^−],effect on arginase relative to L-NOHA,[2],without effect
O=[N+]([O-])O [NO3^−],effect on arginase relative to L-NOHA,[2],without effect
"[N]=O [NO, nitric oxide]",effect on arginase relative to L-NOHA,[2],much weaker inhibitors
OB(O)O [borate],inhibition of arginase activity,[3],S-hyperbolic I-hyperbolic non-competitive inhibitor
O=C(O)CC(O)(CC(=O)O)C(=O)O [citrate],inhibition of arginase activity,[3],do not inhibit
N=C(N)N [guanidinium chloride],Ki,[3],100000 µM
NO [hydroxylamine],activity toward arginase,[2],inactive
NC(=O)NO [hydroxyurea],activity toward arginase,[2],inactive
NCCCC[C@H](N)C(=O)O [lysine],urea production,[6],inhibited
same,carbachol-induced rat tracheal contraction,[7],inhibited
same,arginine uptake / saturable arginine transport,[8],inhibited; also recorded: abolished all saturable arginine transport
NC(N)=O [urea],activity toward arginase,[2],inactive
soluble IL-13 receptor fusion protein sIL-13Rα2-Fc (from UniProt O88786 22-334) (Fc fusion),"inhibition of allergen-induced Arg1 mRNA expression in mouse lung (GeneChip, in vivo)",[9],67%

# — US20040234517A1, “Compositions and methods for diagnosing and treating asthma or other allergic or inflammatory diseases” (WYETH, priority 2003, published 2004)
